Experiments:
Assay type in all cases: binding
β-catenin/E-cadherin = molecular target: T1, β-catenin/E-cadherin (Homo sapiens, UniProt P35222); assay: FP selectivity assay, β-catenin/cadherin assay
T1 construct: 150 nM human β-catenin (residues 138-781); 6×histidine (C); made in house; host or cells: E. coli BL21 DE3
T1 sequence (P35222 138-781): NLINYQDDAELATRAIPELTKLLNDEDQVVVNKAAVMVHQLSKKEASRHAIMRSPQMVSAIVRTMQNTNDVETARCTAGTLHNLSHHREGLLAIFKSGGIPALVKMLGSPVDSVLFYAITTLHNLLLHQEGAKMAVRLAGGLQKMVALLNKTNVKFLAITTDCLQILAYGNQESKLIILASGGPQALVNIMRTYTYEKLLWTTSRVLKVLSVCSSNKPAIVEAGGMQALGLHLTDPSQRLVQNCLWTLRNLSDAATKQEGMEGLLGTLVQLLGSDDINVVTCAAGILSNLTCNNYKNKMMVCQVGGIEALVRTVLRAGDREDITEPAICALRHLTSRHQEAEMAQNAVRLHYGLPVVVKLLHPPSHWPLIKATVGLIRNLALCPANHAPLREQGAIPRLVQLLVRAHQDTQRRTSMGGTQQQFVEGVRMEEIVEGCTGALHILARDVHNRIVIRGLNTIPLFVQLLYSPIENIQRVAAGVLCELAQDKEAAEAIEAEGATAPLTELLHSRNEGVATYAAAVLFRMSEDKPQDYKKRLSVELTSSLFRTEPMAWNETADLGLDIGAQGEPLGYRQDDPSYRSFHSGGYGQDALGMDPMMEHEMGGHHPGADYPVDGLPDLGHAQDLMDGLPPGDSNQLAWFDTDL
Protocol: (§1) FP Selectivity Assays. Experiments were performed in 96-well Microfluor 2 black plates on a Synergy 2 plate reader (Biotek). The polarization was measured at room temperature with an excitation wavelength at 485 nm and an emission wavelength at 535 nm. The FP experiments were performed in an assay buffer of 25 mM Hepes (pH 7.4), 100 mM NaCl, 0.01% Triton X-100, and 100 μg/ml γ-globulin. The final reaction volume was set to 100 μL. For the β-catenin/Tcf assay, 10 nM human β-catenin (residues 138-781) was incubated with 2.5 nM C-terminally fluorescein-labeled human Tcf4 (residues 7-51) for 30 min at 4° C., and then different concentrations of the compound in assay buffer were added. […] For the β-catenin/cadherin assay, 150 nM human β-catenin (residues 138-781) was incubated with 5 nM C-terminally fluorescent-labeled human E-cadherin (residues 819-873) in assay buffer for 30 min at 4° C. The negative control refers to 5 nM E-cadherin fluorescence tracer and 150 nM β-catenin in assay buffer with no inhibitor presenting. The positive control refers to 5 nM E-cadherin fluorescence tracer in assay buffer. […] The negative control refers to 5 nM APC-R3 fluorescence tracer and 2,000 nM β-catenin in assay buffer without the tested compound. The positive control refers to 5 nM APC-R3 fluorescence tracer in assay buffer. Each assay plate was covered black and gently mixed on an orbital shaker at 4° C. for 2.5 h to reach equilibrium before the polarization values were read. […] The IC50 values were determined by GraphPad Prism 5.0. […] The results were expressed as mean±standard deviation. The Tcf/cahderin selectivity ratio was calculated on the basis of the respective Ki value of the β-catenin/E-cadherin interaction over that of the β-catenin/Tcf4 interaction. The Tcf/APC selectivity ratio was calculated on the basis of the respective Ki value of the β-catenin/APC-R3 interaction over that of the β-catenin/Tcf4 interaction. […]

β-catenin/Tcf4 = molecular target: T2, β-catenin/Tcf4 (Homo sapiens, UniProt P35222); assay: FP selectivity assay, β-catenin/Tcf assay; conditions: mean ± SD (n = 3)
T2 construct: Wild-type β-catenin (residues 138-781) were cloned into a pET-28b vector; 6×histidine (C); made in house; host or cells: E. coli BL21 DE3
T2 sequence (P35222 138-781): T1 sequence (P35222 138-781)
Protocol: FP Selectivity Assays. Experiments were performed in 96-well Microfluor 2 black plates on a Synergy 2 plate reader (Biotek). The polarization was measured at room temperature with an excitation wavelength at 485 nm and an emission wavelength at 535 nm. The FP experiments were performed in an assay buffer of 25 mM Hepes (pH 7.4), 100 mM NaCl, 0.01% Triton X-100, and 100 μg/ml γ-globulin. The final reaction volume was set to 100 μL. For the β-catenin/Tcf assay, 10 nM human β-catenin (residues 138-781) was incubated with 2.5 nM C-terminally fluorescein-labeled human Tcf4 (residues 7-51) for 30 min at 4° C., and then different concentrations of the compound in assay buffer were added. […] The negative control refers to 5 nM E-cadherin fluorescence tracer and 150 nM β-catenin in assay buffer with no inhibitor presenting. The positive control refers to 5 nM E-cadherin fluorescence tracer in assay buffer. […] The negative control refers to 5 nM APC-R3 fluorescence tracer and 2,000 nM β-catenin in assay buffer without the tested compound. The positive control refers to 5 nM APC-R3 fluorescence tracer in assay buffer. Each assay plate was covered black and gently mixed on an orbital shaker at 4° C. for 2.5 h to reach equilibrium before the polarization values were read. […] The IC50 values were determined by GraphPad Prism 5.0. […] The results were expressed as mean±standard deviation. […]

β-catenin/APC-R3 = molecular target: T3, β-catenin/APC-R3 (Homo sapiens, UniProt P35222); assay: FP selectivity assay, β-catenin/APC-R3 assay
T3 construct: 2000 nM human β-catenin (residues 138-781); 6×histidine (C); made in house; host or cells: E. coli BL21 DE3
T3 sequence (P35222 138-781): T1 sequence (P35222 138-781)
Protocol: as §1

[1] = FP selectivity assay, mean ± SD (n = 3)

O=C(O)c1ccc2c(c1)c(CCc1ccc(Cl)cc1)c(CCc1nc3ccccc3s1)n2CCc1nn[nH]n1 [Compound 27, 1-(2-(2H-tetrazol-5-yl)ethyl)-2-(2-(benzo[d]thiazol-2-yl)ethyl)-3-(4-chlorophenethyl)-1H-indole-5-carboxylic acid]
Ki (β-catenin/E-cadherin; [1]): 26 ± 8 µM
selectivity for β-catenin/Tcf over β-catenin/cadherin PPI (β-catenin/E-cadherin; FP selectivity assays): 28 fold
Selectivity Tcf/E-cadherin (β-catenin/E-cadherin; ratio of Ki β-catenin/E-cadherin over Ki β-catenin/Tcf4): 28
Ki (β-catenin/Tcf4): 0.93 ± 0.51 µM
Ki (β-catenin/APC-R3; [1]): 74 ± 11 µM
selectivity for β-catenin/Tcf over β-catenin/APC PPI (β-catenin/APC-R3; FP selectivity assays): 80 fold
Selectivity Tcf/APC (β-catenin/APC-R3; ratio of Ki β-catenin/APC-R3 over Ki β-catenin/Tcf4): 80
